Test results published in patent US9738600B2, “ROR gamma (RORγ) modulators” (LEAD PHARMA CEL MODELS IP B.V., priority 2013, dated 2017).

Experiments:
[1] = test system: IL-17A production in anti-CD3/anti-CD28 stimulated peripheral blood mononuclear cells (PBMCs); test: Peripheral blood mononuclear cell (PBMC) IL-17 assay; type: cell-based; conditions: Homo sapiens, 120 h, inhibition of IL-17A production, 5 days, IL-17 ELISA, read-out: mean pIC50 (converted)
Description: The assay procedure and results are described below.
This assay is designed to measure the levels of IL-17A secreted from anti-CD3/anti-CD28 stimulated PBMCs with the aim of measuring RORγ mediated inhibition of IL-17A production.
The assay medium consists of 90% RPMI 1640 (Lonza), 10% heat inactivated fetal bovin serum (FBS, Lonza) and 100 U/mL penicillin/streptomycin solution.
Anti-CD3 antibody (BD Pharmingen) was diluted to 10 μg/ml in PBS (Lonza). 30 μL of 10 μg/ml anti-CD3 solution was added to the inner 60 wells, excluding any negative control wells, of a 96-well cell culture treated U-bottom plate (Greiner). Plates were incubated overnight (16-24 hours) at 37° C. and 5% CO2.
Peripheral blood mononuclear cells were separated from buffy coats (Sanquin) using Ficoll-Paque PREMIUM separation medium (GE Healthcare Life Sciences) according to manufacturer's protocol and re-suspended in assay medium at 37° C.
Test compounds were diluted, starting from a 10 mM dimethylsulfoxide (DMSO) stock solution, to serial dilutions in DMSO at 200× the final test concentration. Subsequently, these solutions were diluted in two dilution steps in assay medium to 10× the final test concentration. The DMSO concentration of the 10× test compound solution was 5%.
Anti-CD28 antibody (BD Pharmingen) was diluted to 20 μg/mL in PBS. The PBMCs were diluted to a concentration of 2.5×10^6 cells/mL in assay medium at 37° C.
For compound screening, the anti-CD3 coated plates were washed three times with PBS, the wells were subsequently aspirated using vacuum. To each screening well 80 μL of the PBMC suspension, 10 μL of the anti-CD28 solution and 10 μL of the 10× test compound solution was added, resulting in the final test concentration with 0.5% DMSO. All outer wells were filled with assay medium to prevent evaporation. Plates were incubated for 5 days at 37° C. and 5% CO2.
After incubation the plates were spun down at 1500 rpm for 4 minutes and the supernatant was collected. Subsequently, the IL-17A levels in the supernatants was determined using an IL-17 ELISA kit (human IL-17 DuoSet, R&D systems) according to manufacturer's protocol.
The half maximum inhibitory concentration (IC50) values for the test compounds were calculated from the IL-17A signal using GraphPad Prism software (GraphPad Software).

RORγ = target: T1, RORγ (Homo sapiens, UniProt P51449); test: RORγ GAL4 reporter gene assay; conditions: mean pIC50, inhibition of RORγ (GAL4-RORγ-LBD) in 293FT cells, luciferase readout, overnight incubation
T1 sequence (P51449 269-508 limits assumed): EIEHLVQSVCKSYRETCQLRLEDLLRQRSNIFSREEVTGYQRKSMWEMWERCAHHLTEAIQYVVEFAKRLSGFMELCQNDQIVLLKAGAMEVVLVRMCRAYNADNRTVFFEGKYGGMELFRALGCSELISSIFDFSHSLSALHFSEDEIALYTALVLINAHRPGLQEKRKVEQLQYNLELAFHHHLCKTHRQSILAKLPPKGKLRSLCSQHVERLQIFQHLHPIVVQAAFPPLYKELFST

IC50 (RORγ) [nM]	SMILES	IC50 [1] [nM]
	CCS(=O)(=O)c1ccc(CC(=O)Nc2ccc(C(O)(C(F)(F)F)C(F)(F)F)cc2)cc1 [Example 2, 2-(4-(ethylsulfonyl)phenyl)-N-(4-(1,1,1,3,3,3-hexafluoro-2-hydroxypropan-2-yl)phenyl)acetamide]	≤ 1000
≤ 100	O=C(Cc1ccc(S(=O)(=O)NC2CC2)cc1)Nc1ccc(C(O)(C(F)(F)F)C(F)(F)F)c(F)c1 [Example 33, 2-(4-(N-cyclopropylsulfamoyl)phenyl)-N-(3-fluoro-4-(1,1,1,3,3,3-hexafluoro-2-hydroxypropan-2-yl)phenyl)acetamide]	≤ 1000
≤ 100	O=C(Cc1ccc(S(=O)(=O)NC2CC2)cc1)Nc1ccc(C(O)(C(F)(F)F)C(F)(F)F)cc1F [Example 35, 2-(4-(N-cyclopropylsulfamoyl)phenyl)-N-(2-fluoro-4-(1,1,1,3,3,3-hexafluoro-2-hydroxypropan-2-yl)phenyl)acetamide]	≤ 1000
≤ 100	O=C(Cc1ccc(S(=O)(=O)CC2CC2)cc1)Nc1ccc(C(O)(C(F)(F)F)C(F)(F)F)cn1 [Example 107, 2-(4-((cyclopropylmethyl)sulfonyl)phenyl)-N-(5-(1,1,1,3,3,3-hexafluoro-2-hydroxypropan-2-yl)pyridin-2-yl)acetamide]	≤ 1000
